Laboratory results: ChEMBL document CHEMBL1156513, “Pharmacologic inhibition of tpl2 blocks inflammatory responses in primary human monocytes, synoviocytes, and blood” (J Biol Chem, 2007)
Activity calls are given as the source filed them. The rule behind the calls is not given here.

What was measured:
[1] = organism: Homo sapiens; test: (§1) Inhibition of LPS-induced MEK phosphorylation in primary human monocytes by immunoblot analysis; assay type: cell-based
[2] = organism: Homo sapiens; test: (§2) Inhibition of LPS-induced ERK phosphorylation in primary human monocytes by immunoblot analysis; assay type: cell-based
[3] = biological target: Mitogen-activated protein kinase kinase kinase 8 (Homo sapiens, UniProt P41279); test: Inhibition of human Tpl2 by ELISA
[4] = as §1; assay type: cell-based
[5] = as §2; assay type: cell-based
[6] = test system: HeLa; test: Inhibition of TNF-alpha-induced ERK phosphorylation in human HeLa cells by immunoblot analysis; assay type: functional, cell-based
[7] = Inhibition of TNF-alpha-stimulated PGE2 production in human RA-FLS cells by immunoblot analysis; assay type: functional, cell-based
[8] = biological target: Stromelysin-1 (Homo sapiens, UniProt P08254); test: Inhibition of IL-1-beta-stimulated MMP3 in human RA-FLS cells by immunoblot analysis; assay type: cell-based
[9] = biological target: Dual specificity mitogen-activated protein kinase kinase 1 (Oryctolagus cuniculus, UniProt P29678); test: Inhibition of rabbit MEK1 by ELISA
[10] = biological target: Mitogen-activated protein kinase 14 (Homo sapiens, UniProt Q16539); test: Inhibition of human p38alpha by ELISA
[11] = biological target: Proto-oncogene tyrosine-protein kinase Src (Homo sapiens, UniProt P12931); test: Inhibition of human Src by ELISA
[12] = Inhibition of human CaMK2 by ELISA
[13] = Inhibition of human PKA by scintiplate assay
[14] = biological target: Protein kinase C alpha type (Homo sapiens, UniProt P17252); test: Inhibition of human PKCalpha by scintiplate assay
[15] = biological target: T1, MAP kinase-activated protein kinase 2 (Homo sapiens, UniProt P49137); test: Inhibition of human MK2 by scintiplate assay
Target sequence in this assay (P49137 whole entry): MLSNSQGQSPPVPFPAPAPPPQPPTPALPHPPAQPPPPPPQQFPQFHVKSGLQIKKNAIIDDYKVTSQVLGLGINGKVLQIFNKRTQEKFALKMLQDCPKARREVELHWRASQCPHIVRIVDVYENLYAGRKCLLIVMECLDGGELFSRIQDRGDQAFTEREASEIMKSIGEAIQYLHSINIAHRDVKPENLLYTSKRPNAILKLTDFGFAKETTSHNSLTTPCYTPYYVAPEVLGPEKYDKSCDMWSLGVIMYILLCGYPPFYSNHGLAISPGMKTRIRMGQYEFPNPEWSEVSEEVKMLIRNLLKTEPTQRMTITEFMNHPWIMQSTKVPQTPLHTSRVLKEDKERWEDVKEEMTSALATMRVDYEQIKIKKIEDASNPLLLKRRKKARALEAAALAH

[16] = Inhibition of human S6K by scintiplate assay
[17] = Inhibition of human JNK1alpha by scintiplate assay
[18] = biological target: T2, Dual specificity mitogen-activated protein kinase kinase 6 (Homo sapiens, UniProt P52564); test: Inhibition of human MKK6 by ELISA
T2 sequence (P52564 whole entry): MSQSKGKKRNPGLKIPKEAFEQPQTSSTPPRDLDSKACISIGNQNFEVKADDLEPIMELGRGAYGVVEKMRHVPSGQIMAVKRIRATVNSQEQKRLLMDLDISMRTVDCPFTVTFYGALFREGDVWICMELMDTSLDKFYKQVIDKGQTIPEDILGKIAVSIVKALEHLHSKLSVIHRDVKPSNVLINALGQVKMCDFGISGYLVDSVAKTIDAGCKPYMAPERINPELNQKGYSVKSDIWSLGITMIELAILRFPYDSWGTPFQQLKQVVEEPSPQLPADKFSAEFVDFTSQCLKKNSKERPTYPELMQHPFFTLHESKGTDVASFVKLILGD

[19] = biological target: T3, Inhibitor of nuclear factor kappa-B kinase subunit beta (Homo sapiens, UniProt O14920); test: Inhibition of human IKK-beta by ELISA
T3 sequence (O14920 whole entry): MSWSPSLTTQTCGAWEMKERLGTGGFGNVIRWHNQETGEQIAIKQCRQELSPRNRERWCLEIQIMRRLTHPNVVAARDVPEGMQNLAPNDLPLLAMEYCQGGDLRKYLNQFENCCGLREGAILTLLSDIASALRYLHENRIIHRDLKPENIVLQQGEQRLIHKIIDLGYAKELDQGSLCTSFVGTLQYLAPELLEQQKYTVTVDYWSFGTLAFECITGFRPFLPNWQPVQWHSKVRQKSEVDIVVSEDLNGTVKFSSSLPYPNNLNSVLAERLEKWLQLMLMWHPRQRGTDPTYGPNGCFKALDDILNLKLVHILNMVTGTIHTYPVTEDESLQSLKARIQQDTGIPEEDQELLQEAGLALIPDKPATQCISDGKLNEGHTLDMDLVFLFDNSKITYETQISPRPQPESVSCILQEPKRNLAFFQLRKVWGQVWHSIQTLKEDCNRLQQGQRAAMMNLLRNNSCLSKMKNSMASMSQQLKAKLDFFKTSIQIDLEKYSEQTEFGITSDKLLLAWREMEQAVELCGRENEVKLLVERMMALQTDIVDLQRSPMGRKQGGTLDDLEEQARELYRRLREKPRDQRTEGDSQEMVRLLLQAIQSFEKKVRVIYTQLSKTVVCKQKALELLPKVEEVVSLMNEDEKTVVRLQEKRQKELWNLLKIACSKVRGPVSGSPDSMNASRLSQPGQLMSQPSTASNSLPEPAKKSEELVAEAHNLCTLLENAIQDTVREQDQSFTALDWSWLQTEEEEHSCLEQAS

[20] = biological target: RAF proto-oncogene serine/threonine-protein kinase (Homo sapiens, UniProt P04049); test: Inhibition of human Raf1
[21] = test system: HeLa; test: Inhibition of IL8 production in human Tpl2 expressing HeLa cells after 17 hrs by ELISA; assay type: functional, cell-based
[22] = test system: HeLa; test: Inhibition of human MEK phosphorylation in Tpl2 transfected HeLa cells; assay type: cell-based
[23] = test system: HeLa; test: Inhibition of human ERK phosphorylation in Tpl2 transfected HeLa cells; assay type: cell-based
[24] = test system: HeLa; test: Cytotoxicity against human HeLa cells; assay type: functional, cell-based
[25] = biological target: MAP kinase p38 (Homo sapiens) (UniProt O15264+Q15759+Q16539+P53778); test: Inhibition of LPS-induced p38 phosphorylation in primary human monocytes upto 5 uM by immunoblot analysis; assay type: cell-based
[26] = biological target: T1, MAP kinase-activated protein kinase 2; test: Inhibition of LPS-induced MK2 phosphorylation in primary human monocytes upto 5 uM by immunoblot analysis; assay type: cell-based
Target sequence in this assay (P49137 whole entry, looked up): as the sequence (P49137 whole entry) above

[27] = organism: Homo sapiens; test: Inhibition of LPS-induced c-Jun phosphorylation in primary human monocytes upto 5 uM by immunoblot analysis; assay type: cell-based
[28] = biological target: T4, NF-kappa-B inhibitor alpha (Homo sapiens) (UniProt P25963); test: Inhibition of LPS-induced IkappaBalpha phosphorylation in primary human monocytes upto 5 uM by immunoblot analysis; assay type: cell-based
T4 sequence (whole entry): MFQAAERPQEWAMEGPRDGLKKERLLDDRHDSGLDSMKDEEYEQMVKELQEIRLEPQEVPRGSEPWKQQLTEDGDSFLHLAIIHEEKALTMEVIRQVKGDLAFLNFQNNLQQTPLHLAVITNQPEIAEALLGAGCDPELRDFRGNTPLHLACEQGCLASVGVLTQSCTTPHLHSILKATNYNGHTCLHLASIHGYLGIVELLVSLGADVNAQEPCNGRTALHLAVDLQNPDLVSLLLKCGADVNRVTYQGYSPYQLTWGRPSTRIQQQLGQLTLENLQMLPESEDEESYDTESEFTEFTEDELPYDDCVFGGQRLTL

[29] = organism: Homo sapiens; test: Effect on ERK activation in LPS-induced tpl2-/- mouse peritoneal macrophages
[30] = test system: HEK293; test: Inhibition of TNF-induced NF-kappaB activation in HEK293 cells upto 10 uM by luciferase assay; assay type: cell-based; conditions: Homo sapiens
[31] = test system: HEK293; test: Inhibition of IL-1-beta-induced NF-kappaB activation in HEK293 cells upto 10 uM by luciferase assay; assay type: cell-based; conditions: Homo sapiens
[32] = organism: Homo sapiens; test: Inhibition of PMA-induced MEK phosphorylation in primary human monocytes by immunoblot analysis; assay type: cell-based
[33] = organism: Homo sapiens; test: Inhibition of PMA-induced ERK phosphorylation in primary human monocytes by immunoblot analysis; assay type: cell-based
[34] = test system: Monocyte; test: Inhibition of LPS-induced TNFalpha production in primary human monocytes; assay type: functional, cell-based
[35] = test system: Monocyte; test: Inhibition of IL-1-beta-induced TNFalpha production in primary human monocytes; assay type: functional, cell-based
[36] = test system: Monocyte; test: (§3) Inhibition of LPS-induced IL12p40 production in primary human monocytes; assay type: functional, cell-based
[37] = test system: Monocyte; test: (§4) Inhibition of IL-1-beta-induced IL12p40 production in primary human monocytes at 5 uM; assay type: functional, cell-based
[38] = test system: Monocyte; test: as §3; assay type: functional
[39] = test system: Monocyte; test: as §4; assay type: functional
[40] = test system: Blood; test: Inhibition of LPS-induced TNFalpha production in human blood; assay type: functional, tissue-based
[41] = test system: Blood; test: Inhibition of IL-1-beta-induced TNFalpha production in human blood; assay type: functional, tissue-based
[42] = Cytotoxicity against primary human monocytes at 5 uM; assay type: cell-based; conditions: monocyte
[43] = Inhibition of IL-1-beta-induced MEK phosphorylation in primary human monocytes by immunoblot analysis; assay type: cell-based
[44] = Inhibition of IL-1-beta-induced ERK phosphorylation in primary human monocytes by immunoblot analysis; assay type: cell-based
[45] = organism: Mus musculus; test: Effect on IL-1-beta-induced ERK phosphorylation in 129S5 mouse thioglycollate elicited peritoneal macrophages
[46] = Inhibition of IL-1-beta-stimulated ERK phosphorylation in shuman RA-FLS cells by immunoblot analysis; assay type: cell-based; conditions: Homo sapiens
[47] = test system: RA-FLS; test: Inhibition of IL-1-beta-stimulated COX2 expression in human RA-FLS cells after 4 hrs by immunoblot analysis; assay type: functional, cell-based
[48] = test system: RA-FLS; test: Inhibition of IL-1-beta-stimulated PGE2 production in human RA-FLS cells after 4 hrs by ELISA; assay type: functional, cell-based
[49] = Cytotoxicity against human RA-FLS cells at =< 10 uM; assay type: cell-based
[50] = Inhibition of IL-1-beta-stimulated IL6 production in human RA-FLS cells by immunoblot analysis; assay type: functional, cell-based
[51] = Inhibition of IL-1-beta-stimulated IL8 production in human RA-FLS cells by immunoblot analysis; assay type: functional, cell-based
[52] = Inhibition of IL-1-beta-stimulated PGE2 production in human RA-FLS cells by immunoblot analysis; assay type: functional, cell-based
[53] = Inhibition of IL-1-beta-stimulated MMP1 in human RA-FLS cells by immunoblot analysis; assay type: functional, cell-based
[54] = test system: HeLa; test: Inhibition of TNF-alpha-induced IL8 production in human HeLa cells after 4 hrs; assay type: functional, cell-based

Sequence of Mitogen-activated protein kinase kinase kinase 8 (P41279 whole entry): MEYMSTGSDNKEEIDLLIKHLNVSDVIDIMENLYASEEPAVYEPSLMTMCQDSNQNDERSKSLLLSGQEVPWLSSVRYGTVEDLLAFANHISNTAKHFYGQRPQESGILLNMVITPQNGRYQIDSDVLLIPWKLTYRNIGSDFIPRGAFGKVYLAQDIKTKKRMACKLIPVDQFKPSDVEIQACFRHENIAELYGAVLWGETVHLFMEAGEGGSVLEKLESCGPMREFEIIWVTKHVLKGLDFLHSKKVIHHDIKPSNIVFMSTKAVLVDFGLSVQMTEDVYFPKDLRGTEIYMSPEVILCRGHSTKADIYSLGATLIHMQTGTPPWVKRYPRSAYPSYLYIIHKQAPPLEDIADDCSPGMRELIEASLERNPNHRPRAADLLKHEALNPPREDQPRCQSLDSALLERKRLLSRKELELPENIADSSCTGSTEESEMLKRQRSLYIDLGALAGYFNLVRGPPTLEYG
Sequence of RAF proto-oncogene serine/threonine-protein kinase (P04049 whole entry): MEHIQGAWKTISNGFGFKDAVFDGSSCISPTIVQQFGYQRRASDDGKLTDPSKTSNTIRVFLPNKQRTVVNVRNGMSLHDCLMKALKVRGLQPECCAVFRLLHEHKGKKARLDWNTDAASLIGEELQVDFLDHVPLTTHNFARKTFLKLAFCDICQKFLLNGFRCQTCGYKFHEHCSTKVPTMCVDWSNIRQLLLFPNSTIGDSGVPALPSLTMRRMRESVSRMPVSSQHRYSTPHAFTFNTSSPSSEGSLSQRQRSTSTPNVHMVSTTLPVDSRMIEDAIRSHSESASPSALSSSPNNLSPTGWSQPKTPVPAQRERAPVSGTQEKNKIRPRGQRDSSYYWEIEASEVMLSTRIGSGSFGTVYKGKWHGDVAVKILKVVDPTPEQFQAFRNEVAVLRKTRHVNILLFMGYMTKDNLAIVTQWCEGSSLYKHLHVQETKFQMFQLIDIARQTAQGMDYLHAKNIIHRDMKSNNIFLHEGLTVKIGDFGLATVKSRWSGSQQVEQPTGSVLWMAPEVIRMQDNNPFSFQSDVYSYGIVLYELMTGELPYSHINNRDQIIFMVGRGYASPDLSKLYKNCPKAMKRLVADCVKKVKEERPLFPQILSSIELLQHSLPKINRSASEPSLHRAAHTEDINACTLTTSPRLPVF
Sequence of Mitogen-activated protein kinase 14 (Q16539 whole entry): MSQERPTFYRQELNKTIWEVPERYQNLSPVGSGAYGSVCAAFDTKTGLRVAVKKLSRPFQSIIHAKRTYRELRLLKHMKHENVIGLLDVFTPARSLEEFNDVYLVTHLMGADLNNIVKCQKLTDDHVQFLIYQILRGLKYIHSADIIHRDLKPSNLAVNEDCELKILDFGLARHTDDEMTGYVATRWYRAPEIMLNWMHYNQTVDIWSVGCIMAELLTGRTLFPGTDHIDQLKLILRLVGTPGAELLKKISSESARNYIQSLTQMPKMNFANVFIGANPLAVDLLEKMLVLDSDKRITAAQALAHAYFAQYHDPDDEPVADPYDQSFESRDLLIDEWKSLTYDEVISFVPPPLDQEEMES
Sequence of Stromelysin-1 (P08254 whole entry): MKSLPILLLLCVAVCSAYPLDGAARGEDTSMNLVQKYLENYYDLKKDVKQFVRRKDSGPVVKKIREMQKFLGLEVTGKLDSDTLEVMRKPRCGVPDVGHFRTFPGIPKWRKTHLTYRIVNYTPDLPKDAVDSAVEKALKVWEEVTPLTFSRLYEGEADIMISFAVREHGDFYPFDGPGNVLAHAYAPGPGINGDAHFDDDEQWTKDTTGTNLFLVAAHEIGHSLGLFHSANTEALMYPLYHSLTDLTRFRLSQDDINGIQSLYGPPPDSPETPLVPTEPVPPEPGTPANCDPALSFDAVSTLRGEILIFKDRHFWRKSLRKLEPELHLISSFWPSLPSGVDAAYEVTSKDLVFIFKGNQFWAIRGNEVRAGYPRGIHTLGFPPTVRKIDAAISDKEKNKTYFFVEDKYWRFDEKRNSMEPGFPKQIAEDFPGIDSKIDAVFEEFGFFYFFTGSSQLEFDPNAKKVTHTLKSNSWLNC
Sequence of Proto-oncogene tyrosine-protein kinase Src (P12931 2-536 limits assumed): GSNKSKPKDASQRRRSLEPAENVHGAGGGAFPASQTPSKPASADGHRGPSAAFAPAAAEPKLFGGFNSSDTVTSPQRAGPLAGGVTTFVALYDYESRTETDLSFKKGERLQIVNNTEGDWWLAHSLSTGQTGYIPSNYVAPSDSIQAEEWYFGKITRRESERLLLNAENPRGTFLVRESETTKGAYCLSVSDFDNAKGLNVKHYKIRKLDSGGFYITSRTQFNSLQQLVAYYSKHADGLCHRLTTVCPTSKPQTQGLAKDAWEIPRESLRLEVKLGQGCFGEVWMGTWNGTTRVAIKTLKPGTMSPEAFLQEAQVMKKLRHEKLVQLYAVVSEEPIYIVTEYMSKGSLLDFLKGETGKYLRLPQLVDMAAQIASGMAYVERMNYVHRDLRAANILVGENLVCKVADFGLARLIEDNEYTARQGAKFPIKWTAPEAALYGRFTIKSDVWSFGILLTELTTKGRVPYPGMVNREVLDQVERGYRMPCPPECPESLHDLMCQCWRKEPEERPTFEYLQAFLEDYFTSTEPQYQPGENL
Sequence of Dual specificity mitogen-activated protein kinase kinase 1 (P29678 whole entry): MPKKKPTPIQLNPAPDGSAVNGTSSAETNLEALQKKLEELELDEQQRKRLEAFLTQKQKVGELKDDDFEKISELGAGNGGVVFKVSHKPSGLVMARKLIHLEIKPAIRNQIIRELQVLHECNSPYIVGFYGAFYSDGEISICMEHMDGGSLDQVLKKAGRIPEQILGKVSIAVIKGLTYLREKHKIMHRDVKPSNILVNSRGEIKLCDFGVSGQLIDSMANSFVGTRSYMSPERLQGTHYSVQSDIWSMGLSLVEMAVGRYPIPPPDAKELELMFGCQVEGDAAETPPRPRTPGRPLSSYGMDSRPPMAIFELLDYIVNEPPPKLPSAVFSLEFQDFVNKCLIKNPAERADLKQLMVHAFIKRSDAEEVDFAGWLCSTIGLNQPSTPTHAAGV

C[C@H](Nc1cc2c(Nc3ccc(F)c(Cl)c3)c(C#N)cnc2cn1)c1ccccc1
Activity [1]: inactive | Activity [2]: inactive

C[C@@H](Nc1cc2c(Nc3ccc(F)c(Cl)c3)c(C#N)cnc2cn1)c1ccccc1
IC50 [3]: 16 nM | IC50 [4]: ≤ 1000 nM | IC50 [5]: ≤ 1000 nM

N#Cc1cnc2c(Cl)cc(NCc3cnc[nH]3)cc2c1Nc1ccc(F)c(Cl)c1
IC50 [6]: 2500 nM | IC50 [7]: 700 nM | IC50 [8]: 2300 nM | IC50 [3]: 12 nM | IC50 [9]: > 40000 nM | IC50 [10]: > 100000 nM | IC50 [11]: > 100000 nM | IC50 [12]: 23000 nM | IC50 [13]: > 100000 nM | IC50 [14]: > 100000 nM | IC50 [15]: 48000 nM | IC50 [16]: > 100000 nM | IC50 [17]: 65000 nM | IC50 [18]: > 100000 nM | IC50 [19]: 73000 nM | IC50 [20]: > 100000 nM | IC50 [21]: 1000 nM | Activity [22]: Active | Activity [23]: Active | Activity [24]: inactive | IC50 [4]: 500 nM | IC50 [5]: 100 nM | Activity [25]: inactive | Activity [26]: inactive | Activity [27]: inactive | Activity [28]: inactive | Activity [29]: inactive | Activity [30]: inactive | Activity [31]: inactive | Activity [32]: inactive | Activity [33]: inactive | IC50 [34]: 600 nM | IC50 [35]: 700 nM | IC50 [36]: > 5000 nM | IC50 [37]: > 5000 nM | inhibition (INH) [38]: 39% | inhibition at 5 µM [39]: 30% | IC50 [40]: 5400 nM | IC50 [41]: 7200 nM | Activity [42]: Non-toxic | IC50 [43]: 500 nM | IC50 [44]: 300 nM | Activity [45]: Dose-dependent effect | IC50 [46]: 300 nM | Activity [47]: Active | Activity [48]: Active | Activity [49]: Non-toxic | IC50 [50]: 6900 nM | IC50 [51]: 7900 nM | IC50 [52]: 400 nM | IC50 [53]: 4000 nM | IC50 [54]: 200 nM
